Experimental data: ChEMBL document CHEMBL5154732, “Discovery of indol-6-yl-pyrrolo[2,3-c]pyridin-7-one derivatives as bromodomain-containing protein 4 (BRD4) inhibitors for the treatment of kidney fibrosis” (Eur J Med Chem, 2022)
The source made the active and inactive calls. The calls are words filed in the database; no cut-off is given here.

Assays:
[1] = biological target: Bromodomain-containing protein 4 (Homo sapiens, UniProt O60885); test: Inhibition of His-tagged […] recombinant BRD4 (unknown origin) (21 to 153 residues) using SGRGK(Ac)GGK(Ac)GLGK(Ac)GGAK(Ac)RHRK(Biotin)-OH as substrate measured after 1 hr by HTRF assay
Mus musculus [2] = test: Nephroprotective activity against unilateral ureteral obstruction kidney injury C57BL/6J mouse model assessed as decreased tubular injury score at 100 mg/kg, ip administered for 8 consecutive days by H & E staining based assay; format: functional, organism-based; settings: time 8.0 day
Mus musculus [3] = test: Nephroprotective activity against unilateral ureteral obstruction kidney injury C57BL/6J mouse model assessed as decreased kidney damage at 100 mg/kg, ip administered for 8 consecutive days by H & E staining based assay; format: functional, organism-based; settings: time 8.0 day
Mus musculus [4] = test: Nephroprotective activity against unilateral ureteral obstruction kidney injury C57BL/6J mouse model assessed as decreased fibrotic scores at 100 mg/kg, ip administered for 8 consecutive days by Masson's staining based assay; format: functional, organism-based; settings: time 8.0 day
Mus musculus [5] = test: Anti-fibrotic activity against unilateral ureteral obstruction kidney injury C57BL/6J mouse model assessed as suppression of UUO-induced alpha-SMA expression in kidney at 100 mg/kg, ip administered daily measured after 7 days by immunohistochemistry staining analysis; format: functional, organism-based; settings: time 7.0 day

Compound | IC50 [1] [µM] | further results
Cc1noc(C)c1-c1ccc2ccn(C(C)c3ccccc3)c2c1 (stereo not given) | > 3 | –
Cc1noc(C)c1-c1ccc2ccn(Cc3ccc(C(F)(F)F)cc3)c2c1 | > 3 | –
Cc1noc(C)c1-c1ccc2c(C)cn(Cc3ccccc3)c2c1 | > 3 | –
Cc1sc2c(c1C)C(c1ccc(Cl)cc1)=N[C@@H](C(=O)OC(C)(C)C)c1nnc(C)n1-2 | 0.092 | Activity (Mus musculus [2]): Active; Activity (Mus musculus [3]): Active; Activity (Mus musculus [4]): Active; Activity (Mus musculus [5]): Active
O=C1NC=C(c2ccc3ccn(Cc4cc(F)cc(F)c4)c3c2)C2C=CNC12 (stereo not given) | 0.347 | –
Cc1noc(C)c1-c1ccc2ccn(C3CCCC3)c2c1 | > 3 | –
Cc1cn(Cc2ccccc2)c2cc(-c3cn(C)c(=O)c4[nH]ccc34)ccc12 | 0.514 | –
CCCC(C)n1ccc2ccc(C3=CNC(=O)C4NC=CC34)cc21 (stereo not given) | 0.578 | –
COc1cc(Cn2ccc3ccc(-c4c(C)noc4C)cc32)cc(OC)c1 | > 3 | –
Cc1noc(C)c1-c1ccc2ccn(Cc3ccccn3)c2c1 | 0.481 | –
CC(c1ccccc1)n1ccc2ccc(-c3cn(C)c(=O)c4[nH]ccc34)cc21 (stereo not given) | 0.504 | –
